Source: US11370798B2 (Vertex Pharmaceuticals Incorporated, priority 2012, dated 2022)

System: HCT116 colorectal cancer cells
Test: Cisplatin sensitization assay (96 h cell viability MTS);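 note: Test-compound concentration that lowers the Cisplatin IC50 by a set fold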
Type: cell-based
Conditions: compound and Cisplatin added simultaneously, Cisplatin sensitization value
Procedure, shortened: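 Compound and cisplatin added together as a full matrix of 2-fold serial dilutions from a top final concentration of 10 μM; cells incubated 96 h at 37° C, 5% CO2. Viability then read by MTS after 1 h further incubation; sensitization value reported in μM bins.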

| SMILES | Cisplatin Sensitization Assay |
| --- | --- |
| COC(=O)N1CCN(c2c(F)cncc2NC(=O)c2c(N)nn3cc(F)cnc23)CC1 [I-N-261, methyl-4-(3-(2-amino-6-fluoropyrazolo[1,5-a]pyrimidine-3-carboxamido)-5-fluoropyridin-4-yl)piperazine-1-carboxylate] | +++ (Cisplatin sensitization value of <0.02 μM) |
| CN1CC2CN(C(=O)C3CCN(c4c(F)cncc4NC(=O)c4c(N)nn5cc(F)cnc45)CC3)CC2C1 (centres unmarked) [I-G-18, 2-amino-6-fluoro-N-(5-fluoro-4-(4-(5-methyloctahydropyrrolo[3,4-c]pyrrole-2-carbonyl)piperidin-1-yl)pyridin-3-yl)pyrazolo[1,5-a]pyrimidine-3-carboxamide] | +++ (Cisplatin sensitization value of <0.02 μM) |
| CN(C)CCCOc1ccncc1NC(=O)c1c(N)nn2cc(Cl)cnc12 [I-O-52, 2-amino-6-chloro-N-(4-(3-(dimethylamino)propoxy)pyridin-3-yl)pyrazolo[1,5-a]pyrimidine-3-carboxamide] | + (Cisplatin sensitization value>0.2 μM but <5 μM) |
| CN1CC(C(=O)N2CCN(c3c(F)cncc3NC(=O)c3c(N)nn4cc(F)cnc34)CC2)C1 [I-N-194] | +++ (Cisplatin sensitization value of <0.02 μM) |
| Cn1cncc1-c1ccncc1NC(=O)c1c(N)nn2cc(F)cnc12 [I-C-56, 2-amino-6-fluoro-N-(4-(1-methyl-1H-imidazol-5-yl)pyridin-3-yl)pyrazolo[1,5-a]pyrimidine-3-carboxamide] | +++ (Cisplatin sensitization value of <0.02 μM) |
| N#CCc1cnc2c(C(=O)Nc3cnccc3OCC3CC3)c(N)nn2c1 [I-O-32, 2-amino-6-(cyanomethyl)-N-(4-(cyclopropylmethoxy)pyridin-3-yl)pyrazolo[1,5-a]pyrimidine-3-carboxamide] | +++ (Cisplatin sensitization value of <0.02 μM) |
| Cc1nc(N2CCN(C)CC2)ccc1-c1ccncc1NC(=O)c1c(N)nn2cc(F)cnc12 [I-C-40, 2-amino-6-fluoro-N-(2-methyl-6-(4-methylpiperazin-1-yl)-[3,4′-bipyridin]-3′-yl)pyrazolo[1,5-a]pyrimidine-3-carboxamide] | +++ (Cisplatin sensitization value of <0.02 μM) |
| N#C[C@@H]1CCN(c2c(Cl)cncc2NC(=O)c2c(N)nn3cc(F)cnc23)C1 [I-N-285, (R)-2-amino-N-(5-chloro-4-(3-cyanopyrrolidin-1-yl)pyridin-3-yl)-6-fluoropyrazolo[1,5-a]pyrimidine-3-carboxamide] | ++ (Cisplatin sensitization value>0.02 μM but <0.2 μM) |
| Nc1nn2cc(F)cnc2c1C(=O)Nc1cncc(F)c1C1CCN(C2COC2)CC1 [I-C-13, 2-amino-6-fluoro-N-(5-fluoro-4-(1-(oxetan-3-yl)piperidin-4-yl)pyridin-3-yl)pyrazolo[1,5-a]pyrimidine-3-carboxamide] | ++ (Cisplatin sensitization value>0.02 μM but <0.2 μM) |
| CN1CCN(c2c(NC(=O)c3c(N)nn4cc(F)cnc34)cncc2C(F)F)CC1 [I-N-111, 2-amino-N-(5-(difluoromethyl)-4-(4-methylpiperazin-1-yl)pyridin-3-yl)-6-fluoropyrazolo[1,5-a]pyrimidine-3-carboxamide] | ++ (Cisplatin sensitization value>0.02 μM but <0.2 μM) |
| Nc1nn2cc(Cl)cnc2c1C(=O)Nc1cnccc1OC1CCCOC1 (centres unmarked) [I-O-65, 2-amino-6-chloro-N-(4-((tetrahydro-2H-pyran-3-yl)oxy)pyridin-3-yl)pyrazolo[1,5-a]pyrimidine-3-carboxamide] | +++ (Cisplatin sensitization value of <0.02 μM) |
| Nc1nn2cc(F)cnc2c1C(=O)Nc1cnccc1N1CCC(CN2CCC(F)(F)C2)CC1 [I-N-197, 2-amino-N-(4-(4-((3,3-difluoropyrrolidin-1-yl)methyl)piperidin-1-yl)pyridin-3-yl)-6-fluoropyrazolo[1,5-a]pyrimidine-3-carboxamide] | +++ (Cisplatin sensitization value of <0.02 μM) |
| CN1CCN(C(=O)C2CCN(c3c(F)cncc3NC(=O)c3c(N)nn4cc(F)cnc34)CC2)CC1(C)C [I-G-15, 2-amino-6-fluoro-N-(5-fluoro-4-(4-(3,3,4-trimethylpiperazine-1-carbonyl)piperidin-1-yl)pyridin-3-yl)pyrazolo[1,5-a]pyrimidine-3-carboxamide] | +++ (Cisplatin sensitization value of <0.02 μM) |
| Nc1nn2cc(F)cnc2c1C(=O)Nc1cnccc1-c1cccnc1F [I-C-35, 2-amino-6-fluoro-N-(2-fluoro-[3,4′-bipyridin]-3′-yl)pyrazolo[1,5-a]pyrimidine-3-carboxamide] | +++ (Cisplatin sensitization value of <0.02 μM) |
| Nc1nn2cc(F)cnc2c1C(=O)Nc1cncc(F)c1N1CCC(C(=O)N2CCC(N3CCCCC3)CC2)CC1 [I-G-60, N-(4-(4-([1,4′-bipiperidine]-1′-carbonyl)piperidin-1-yl)-5-fluoropyridin-3-yl)-2-amino-6-fluoropyrazolo[1,5-a]pyrimidine-3-carboxamide] | +++ (Cisplatin sensitization value of <0.02 μM) |
| Nc1nn2cc(F)cnc2c1C(=O)Nc1cnccc1-c1ccc(C(=O)N2CCNCC2)cc1 [I-C-44, 2-amino-6-fluoro-N-(4-(4-(piperazine-1-carbonyl)phenyl)pyridin-3-yl)pyrazolo[1,5-a]pyrimidine-3-carboxamide] | +++ (Cisplatin sensitization value of <0.02 μM) |
| CCn1cncc1-c1ccncc1NC(=O)c1c(N)nn2cc(F)cnc12 [I-C-80, 2-amino-N-(4-(1-ethyl-1H-imidazol-5-yl)pyridin-3-yl)-6-fluoropyrazolo[1,5-a]pyrimidine-3-carboxamide] | +++ (Cisplatin sensitization value of <0.02 μM) |
| Nc1nn2cc(F)cnc2c1C(=O)Nc1cnccc1N1CCCC2(COC2)C1 [I-N-253, N-(4-(2-oxa-6-azaspiro[3.5]nonan-6-yl)pyridin-3-yl)-2-amino-6-fluoropyrazolo[1,5-a]pyrimidine-3-carboxamide] | +++ (Cisplatin sensitization value of <0.02 μM) |
| Nc1nn2cc(F)cnc2c1C(=O)Nc1cncc(F)c1N1CCC(C(=O)N2CCN(C3COC3)CC2)CC1 [I-G-32, 2-amino-6-fluoro-N-[5-fluoro-4-[4-[4-(oxetan-3-yl)piperazine-1-carbonyl]-1-piperidyl]-3-pyridyl]pyrazolo[1,5-a]pyrimidine-3-carboxamide] | +++ (Cisplatin sensitization value of <0.02 μM) |
| CN1CCN(C(=O)c2ccc(-c3ccncc3NC(=O)c3c(N)nn4cc(F)cnc34)cc2)CC1 [I-C-25, 2-amino-6-fluoro-N-(4-(4-(4-methylpiperazine-1-carbonyl)phenyl)pyridin-3-yl)pyrazolo[1,5-a]pyrimidine-3-carboxamide] | +++ (Cisplatin sensitization value of <0.02 μM) |
| Nc1nn2cc(Cl)cnc2c1C(=O)Nc1cnccc1N1CCNCC1 [I-N-88, 2-amino-6-chloro-N-(4-(piperazin-1-yl)pyridin-3-yl)pyrazolo[1,5-a]pyrimidine-3-carboxamide] | ++ (Cisplatin sensitization value>0.02 μM but <0.2 μM) |
| Nc1nn2cc(F)cnc2c1C(=O)Nc1cncc(F)c1N1CCN(S(=O)(=O)C2CC2)CC1 [I-N-159, 2-amino-N-(4-(4-(cyclopropylsulfonyl)piperazin-1-yl)-5-fluoropyridin-3-yl)-6-fluoropyrazolo[1,5-a]pyrimidine-3-carboxamide] | +++ (Cisplatin sensitization value of <0.02 μM) |
| CC1(C)CN(C(=O)C2CCN(c3c(F)cncc3NC(=O)c3c(N)nn4cc(F)cnc34)CC2)CCN1 [I-G-27, 2-amino-N-(4-(4-(3,3-dimethylpiperazine-1-carbonyl)piperidin-1-yl)-5-fluoropyridin-3-yl)-6-fluoropyrazolo[1,5-a]pyrimidine-3-carboxamide] | ++ (Cisplatin sensitization value>0.02 μM but <0.2 μM) |
| Cc1nnc(N2CCN(c3ccncc3NC(=O)c3c(N)nn4cc(F)cnc34)CC2)o1 [I-N-256, 2-amino-6-fluoro-N-(4-(4-(5-methyl-1,3,4-oxadiazol-2-yl)piperazin-1-yl)pyridin-3-yl)pyrazolo[1,5-a]pyrimidine-3-carboxamide] | ++ (Cisplatin sensitization value>0.02 μM but <0.2 μM) |
| CN1CCN(c2ccncc2NC(=O)c2c(N)nn3cc(F)cnc23)CC12CCOCC2 [I-N-133, 2-amino-6-fluoro-N-(4-(1-methyl-9-oxa-1,4-diazaspiro[5.5]undecan-4-yl)pyridin-3-yl)pyrazolo[1,5-a]pyrimidine-3-carboxamide] | ++ (Cisplatin sensitization value>0.02 μM but <0.2 μM) |
| Nc1nn2cc(Cl)cnc2c1C(=O)Nc1cnccc1O[C@@H]1CCNC1 [I-O-77, (R)-2-amino-6-chloro-N-(4-(pyrrolidin-3-yloxy)pyridin-3-yl)pyrazolo[1,5-a]pyrimidine-3-carboxamide] | ++ (Cisplatin sensitization value>0.02 μM but <0.2 μM) |
| COC1CCN(c2ccncc2NC(=O)c2c(N)nn3cc(F)cnc23)CC1 [I-N-266, 2-amino-6-fluoro-N-(4-(4-methoxypiperidin-1-yl)pyridin-3-yl)pyrazolo[1,5-a]pyrimidine-3-carboxamide] | +++ (Cisplatin sensitization value of <0.02 μM) |
| Nc1nn2cc(F)cnc2c1C(=O)Nc1cnccc1-c1ccc(C(=O)N2CCC(N3CCC3)CC2)nc1 [I-C-54, 2-amino-N-(6-(4-(azetidin-1-yl)piperidine-1-carbonyl)-[3,4′-bipyridin]-3′-yl)-6-fluoropyrazolo[1,5-a]pyrimidine-3-carboxamide] | +++ (Cisplatin sensitization value of <0.02 μM) |
| Nc1nn2cc(F)cnc2c1C(=O)Nc1cncc(F)c1N1CCN2C(=O)CCCC2C1 (centres unmarked) [I-N-277, 2-amino-6-fluoro-N-(5-fluoro-4-(6-oxohexahydro-1H-pyrido[1,2-a]pyrazin-2(6H)-yl)pyridin-3-yl)pyrazolo[1,5-a]pyrimidine-3-carboxamide] | +++ (Cisplatin sensitization value of <0.02 μM) |
